From paper PMC2584942, “Phase I dose escalation study of telatinib (BAY 57-9352) in patients with advanced solid tumours” (British Journal of Cancer, 2008)
“Also recorded” adds a separate entry of the source.

Key:
[1] = test system: refractory advanced solid tumours; assay: Tumour response according to RECIST; assay type: in vivo, human; conditions: number of patients
Method: (§1) History, physical examinations, haematological and biochemical laboratory evaluations were performed at screening, on days 1, 7 and 14 of cycle 1 and on day 1 of subsequent cycles. Baseline objective tumour measurements were performed within 4 weeks prior to study treatment. Lesions at all disease sites were categorised as either measurable or nonmeasurable. Indicator lesions were selected and monitored throughout the study by the same assessor and using the same technique. Tumour response was evaluated according to the RECIST ([Therasse et al, 2000]).

Colo-205 colon carcinoma = test system: Colo-205 colon carcinoma; design: method as in printed; conditions: Colo-205 colon carcinoma model; background statement, ref not given; cited from earlier work
PDGFR-β = test system: PDGFR-β; design: method as in printed; conditions: biochemical assay; background statement, ref not given; cited from earlier work
[2] = Phase I dose escalation: study drug-related adverse events (NCI CTC v2.0), DLT, MTD; assay type: in vivo
Method: Administration of telatinib was continued until an unacceptable toxicity, disease progression or death occurred or the consent was withdrawn. At start of the study, only a solution formulation was available. The formulation as tablet was introduced into the study after first pharmacokinetic results became available. Based on pharmacokinetic data, OD, two times daily (BID), and three times daily schedules were evaluated.
Three patients were initially enroled at each dose level. […] If any patient experienced a DLT, three additional patients were enroled at that dose level. If at least two out of six patients experienced a DLT, dose escalation had to be stopped and that dose was to be declared the toxic dose. The next lower dose level was defined as the MTD. […] In the course of the study the protocol was amended so that the onset of CTC grade 3 hypertension was only considered to be a DLT if the hypertension turned out to be refractory to standard antihypertensive treatment.
Adverse events were assessed at the end of each cycle and graded according to the National Cancer Institute Common Toxicity Criteria (NCI CTC), v2.0 ([Trotti et al, 2000]).
as §1

[3] = primary tumour site Colorectal, N=25
[4] = primary tumour site Other, N=17
[5] = primary tumour site Pancreatic, N=4
[6] = continuous dosing 600 mg BID (N=7)
[7] = continuous dosing 900 mg BID (N=6)
[8] = continuous dosing 1200 mg BID (N=7)
[9] = continuous dosing 1500 mg BID (N=6)
[10] = noncontinuous dosing 600 mg BID (N=6)
[11] = noncontinuous dosing 900 mg BID (N=6)
[12] = noncontinuous dosing 1500 mg BID (N=6)
[13] = noncontinuous dosing 75–300 mg BID (N=27)

## CNC(=O)c1cc(COc2nnc(Nc3ccc(Cl)cc3)c3ccoc23)ccn1 [telatinib]
[1]; Total, N=71
  Best response NA (not assessable for response): 1
  Best response PD clin (RECIST): 9
  Best response PD meas (RECIST): 14
  Best response PR (RECIST): 2
  Best response SD (RECIST): 42
  Stabilisation (months) <6: 62
  Stabilisation (months) >6: 5
  Stabilisation (months) >12: 3
[1]; [3]
  Best response PD clin (RECIST): 1
  Best response PD meas (RECIST): 6
  Best response SD (RECIST): 17
  Stabilisation (months) <6: 23
  Stabilisation (months) >6: 1
  Stabilisation (months) >12: 1
[1]; primary tumour site HCC, N=9
  Best response PD clin (RECIST): 4
  Best response SD (RECIST): 5
  Stabilisation (months) <6: 8
  Stabilisation (months) >6: 1
[1]; primary tumour site NSCLC, N=4
  Best response PD meas (RECIST): 1
  Best response SD (RECIST): 3
  Stabilisation (months) <6: 4
[1]; [4]
  Best response NA (not assessable for response): 1
  Best response PD clin (RECIST): 1
  Best response PD meas (RECIST): 4
  Best response SD (RECIST): 10
  Stabilisation (months) <6: 13
  Stabilisation (months) >6: 3
[1]; [5]
  Best response PD clin (RECIST): 2
  Best response PD meas (RECIST): 2
  Stabilisation (months) <6: 4
[1]; primary tumour site RCC, N=12
  Best response PD clin (RECIST): 1
  Best response PD meas (RECIST): 1
  Best response SD (RECIST): 7
  Stabilisation (months) <6: 10
  Stabilisation (months) >12: 2
Colo-205 colon carcinoma
  tumour growth in vivo: potent, dose-dependent reduction in tumour growth
PDGFR-β
  PDGFR-β tyrosine kinase activity: potent inhibitor
[2]; 300 mg BID, 1500 mg BID noncontinuous and 1200 mg BID continuous dosing
  Patients with hypertension resulting in dose reduction and dose interruption: three
[2]; 1500 mg BID continuous dosing, first 21 days of treatment
  Patients with dose-limiting toxicities: no patient out of six patients; also recorded: none of the six patients
[2]; 1500 mg BID noncontinuous dosing, grade 3 hypertension refractory to standard treatment
  Patients with dose-limiting toxicities: one out of six patients
[2]; Total, all patients N=71
  Incidence of patients with study drug-related adverse events, worst CTC grade 3: Abdominal pain or cramping: 2 (3) N(%)
  Incidence of patients with study drug-related adverse events, worst CTC grade 3: Any event: 18 (25) N(%)
  Incidence of patients with study drug-related adverse events, worst CTC grade 3: Dehydration: 1 (1) N(%)
  Incidence of patients with study drug-related adverse events, worst CTC grade 3: Diarrhoea, patients with colostomy: 1 (1) N(%)
  Incidence of patients with study drug-related adverse events, worst CTC grade 3: Diarrhoea, patients without colostomy: 4 (6) N(%)
  Incidence of patients with study drug-related adverse events, worst CTC grade 3: Hand–foot skin reaction: 1 (1) N(%)
  Incidence of patients with study drug-related adverse events, worst CTC grade 3: Hypertension: 16 (23) N(%)
  Incidence of patients with study drug-related adverse events, worst CTC grade 3: Rash/desquamation: 1 (1) N(%)
  Incidence of patients with study drug-related adverse events, worst CTC grades 1–2: Alopecia: 2 (3) N(%)
  Incidence of patients with study drug-related adverse events, worst CTC grades 1–2: Anorexia: 5 (7) N(%)
  Incidence of patients with study drug-related adverse events, worst CTC grades 1–2: Any event: 15 (21) N(%)
  Incidence of patients with study drug-related adverse events, worst CTC grades 1–2: Diarrhoea, patients without colostomy: 4 (6) N(%)
  Incidence of patients with study drug-related adverse events, worst CTC grades 1–2: Fatigue: 2 (3) N(%)
  Incidence of patients with study drug-related adverse events, worst CTC grades 1–2: Flatulence: 2 (3) N(%)
  Incidence of patients with study drug-related adverse events, worst CTC grades 1–2: Hypertension: 3 (4) N(%)
  Incidence of patients with study drug-related adverse events, worst CTC grades 1–2: Nausea: 3 (4) N(%)
  Incidence of patients with study drug-related adverse events, worst CTC grades 1–2: Voice changes/stridor/larynx: 5 (7) N(%)
  Incidence of patients with study drug-related adverse events, worst CTC grades 1–2: Vomiting: 2 (3) N(%)
[2]; all patients
  Patients dose reduced or discontinued permanently due to drug-related adverse events: nine out of 71
[2]; all patients N=71
  Hypertension, study drug-related, CTC grade 3: 23%
  Hypertension, study drug-related, worst CTC grade 1–2: 4%
  Patients with at least one study drug-related adverse event, worst CTC grade 1–2: 21%
  Patients with at least one study drug-related adverse event, worst CTC grade 3: 25%
  Study drug-related adverse events of CTC grades 4 or 5: no study drug-related adverse events of CTC grades 4 or 5
[2]; all patients N=71 (with and without colostomy)
  Diarrhoea, study drug-related, CTC grade 3: 7%
[2]; all patients, diarrhoea, hypertension, hand–foot skin reaction and dehydration
  Patients with serious study drug-related adverse events: five
[2]; [6]
  Incidence of patients with study drug-related adverse events, worst CTC grades 1–2: Any event: 1 (14) N(%)
  Incidence of patients with study drug-related adverse events, worst CTC grades 1–2: Diarrhoea, patients without colostomy: 1 (14) N(%)
[2]; [7]
  Incidence of patients with study drug-related adverse events, worst CTC grade 3: Any event: 3 (50) N(%)
  Incidence of patients with study drug-related adverse events, worst CTC grade 3: Dehydration: 1 (17) N(%)
  Incidence of patients with study drug-related adverse events, worst CTC grade 3: Diarrhoea, patients with colostomy: 1 (17) N(%)
  Incidence of patients with study drug-related adverse events, worst CTC grade 3: Diarrhoea, patients without colostomy: 1 (17) N(%)
  Incidence of patients with study drug-related adverse events, worst CTC grade 3: Hand–foot skin reaction: 1 (17) N(%)
  Incidence of patients with study drug-related adverse events, worst CTC grade 3: Hypertension: 2 (33) N(%)
  Incidence of patients with study drug-related adverse events, worst CTC grade 3: Rash/desquamation: 1 (17) N(%)
  Incidence of patients with study drug-related adverse events, worst CTC grades 1–2: Alopecia: 1 (17) N(%)
  Incidence of patients with study drug-related adverse events, worst CTC grades 1–2: Any event: 2 (33) N(%)
  Incidence of patients with study drug-related adverse events, worst CTC grades 1–2: Nausea: 1 (17) N(%)
  Incidence of patients with study drug-related adverse events, worst CTC grades 1–2: Voice changes/stridor/larynx: 1 (17) N(%)
[2]; [8]
  Incidence of patients with study drug-related adverse events, worst CTC grade 3: Abdominal pain or cramping: 1 (14) N(%)
  Incidence of patients with study drug-related adverse events, worst CTC grade 3: Any event: 5 (71) N(%)
  Incidence of patients with study drug-related adverse events, worst CTC grade 3: Diarrhoea, patients without colostomy: 2 (29) N(%)
  Incidence of patients with study drug-related adverse events, worst CTC grade 3: Hypertension: 5 (71) N(%)
  Incidence of patients with study drug-related adverse events, worst CTC grades 1–2: Any event: 1 (14) N(%)
  Incidence of patients with study drug-related adverse events, worst CTC grades 1–2: Flatulence: 1 (14) N(%)
[2]; [9]
  Incidence of patients with study drug-related adverse events, worst CTC grades 1–2: Any event: 2 (33) N(%)
  Incidence of patients with study drug-related adverse events, worst CTC grades 1–2: Diarrhoea, patients without colostomy: 2 (33) N(%)
  Incidence of patients with study drug-related adverse events, worst CTC grades 1–2: Flatulence: 1 (17) N(%)
  Incidence of patients with study drug-related adverse events, worst CTC grades 1–2: Hypertension: 1 (17) N(%)
  Incidence of patients with study drug-related adverse events, worst CTC grades 1–2: Nausea: 1 (17) N(%)
  Incidence of patients with study drug-related adverse events, worst CTC grades 1–2: Vomiting: 1 (17) N(%)
[2]; continuous dosing, MTD not reached up to highest dose
  Maximum-tolerated dose (MTD): > 1500 mg BID
[2]; cycle 1, day 14 vs baseline
  diastolic blood pressure, change from baseline: increase
[2]; dose levels of 900 mg BID or higher
  Patients with diarrhoea leading to dose reduction or interruption: four
[2]; grade 3 hypertension refractory to standard treatment, at 300 and 1500 mg BID noncontinuous dosing
  Patients with dose-limiting toxicities: two
[2]; human, in vivo
  Maximum-tolerated dose (MTD): > 1500 mg BID
[2]; [10]
  Incidence of patients with study drug-related adverse events, worst CTC grade 3: Any event: 3 (50) N(%)
  Incidence of patients with study drug-related adverse events, worst CTC grade 3: Hypertension: 3 (50) N(%)
  Incidence of patients with study drug-related adverse events, worst CTC grades 1–2: Anorexia: 1 (17) N(%)
  Incidence of patients with study drug-related adverse events, worst CTC grades 1–2: Any event: 2 (33) N(%)
  Incidence of patients with study drug-related adverse events, worst CTC grades 1–2: Fatigue: 2 (33) N(%)
  Incidence of patients with study drug-related adverse events, worst CTC grades 1–2: Voice changes/stridor/larynx: 2 (33) N(%)
[2]; [11]
  Incidence of patients with study drug-related adverse events, worst CTC grade 3: Any event: 2 (33) N(%)
  Incidence of patients with study drug-related adverse events, worst CTC grade 3: Hypertension: 2 (33) N(%)
  Incidence of patients with study drug-related adverse events, worst CTC grades 1–2: Anorexia: 1 (17) N(%)
  Incidence of patients with study drug-related adverse events, worst CTC grades 1–2: Any event: 3 (50) N(%)
  Incidence of patients with study drug-related adverse events, worst CTC grades 1–2: Hypertension: 1 (17) N(%)
  Incidence of patients with study drug-related adverse events, worst CTC grades 1–2: Voice changes/stridor/larynx: 2 (33) N(%)
[2]; [12]
  Incidence of patients with study drug-related adverse events, worst CTC grade 3: Abdominal pain or cramping: 1 (17) N(%)
  Incidence of patients with study drug-related adverse events, worst CTC grade 3: Any event: 4 (67) N(%)
  Incidence of patients with study drug-related adverse events, worst CTC grade 3: Diarrhoea, patients without colostomy: 1 (17) N(%)
  Incidence of patients with study drug-related adverse events, worst CTC grade 3: Hypertension: 3 (50) N(%)
  Incidence of patients with study drug-related adverse events, worst CTC grades 1–2: Anorexia: 2 (33) N(%)
  Incidence of patients with study drug-related adverse events, worst CTC grades 1–2: Any event: 2 (33) N(%)
  Incidence of patients with study drug-related adverse events, worst CTC grades 1–2: Diarrhoea, patients without colostomy: 1 (17) N(%)
  Incidence of patients with study drug-related adverse events, worst CTC grades 1–2: Hypertension: 1 (17) N(%)
  Incidence of patients with study drug-related adverse events, worst CTC grades 1–2: Nausea: 1 (17) N(%)
  Incidence of patients with study drug-related adverse events, worst CTC grades 1–2: Vomiting: 1 (17) N(%)
[2]; [13]
  Incidence of patients with study drug-related adverse events, worst CTC grade 3: Any event: 1 (4) N(%)
  Incidence of patients with study drug-related adverse events, worst CTC grade 3: Hypertension: 1 (4) N(%)
  Incidence of patients with study drug-related adverse events, worst CTC grades 1–2: Alopecia: 1 (4) N(%)
  Incidence of patients with study drug-related adverse events, worst CTC grades 1–2: Anorexia: 1 (4) N(%)
  Incidence of patients with study drug-related adverse events, worst CTC grades 1–2: Any event: 2 (7) N(%)
